Measured values: ChEMBL document CHEMBL1201862, “PubChem BioAssay data set” (2004)
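All cell lines were grown in 96-well plates and treated with compound for 48 hours. At the GI50, growth is halved.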 The source made the active and inactive calls. Cut-off read from the data, not from the text of the source: active = GI50 up to about 1.1 µM and inactive = higher.

Assays:
Assay in all cases: NCI-60 cell line screen, 48 h
NCI-H522 = test system: NCI-H522
DMS-273 = test system: DMS-273
COLO 205 = test system: COLO 205
SNB-78 = test system: SNB-78
NCI-H23 = test system: NCI-H23
RXF 393 = test system: RXF 393
UO-31 = test system: UO-31
SN12C = test system: SN12C
OVCAR-8 = test system: OVCAR-8
DLD-1 = test system: DLD-1
EKVX = test system: EKVX
CCRF-CEM = test system: CCRF-CEM
HOP-92 = test system: HOP-92
HL-60 = test system: HL-60
OVCAR-4 = test system: OVCAR-4
SW-620 = test system: SW-620
SNB-19 = test system: SNB-19
SK-OV-3 = test system: SK-OV-3

Row | SMILES | GI50 (NCI-H522) | GI50 (DMS-273) | GI50 (COLO 205) | GI50 (SNB-78) | GI50 (NCI-H23) | GI50 (RXF 393) | GI50 (UO-31) | GI50 (SN12C) | GI50 (OVCAR-8) | GI50 (DLD-1) | GI50 (EKVX) | GI50 (CCRF-CEM) | GI50 (HOP-92) | GI50 (HL-60) | GI50 (OVCAR-4) | GI50 (SW-620) | GI50 (SNB-19) | GI50 (SK-OV-3)
1 | Clc1ccc(-c2c(C3=NCCN3)nnn2-c2ccc(Cl)cc2)cc1 | 16 µM (inactive) | 42.2 µM (inactive) | 12.6 µM (inactive) | 18.8 µM (inactive) | 35.2 µM (inactive) | 16.7 µM (inactive) | 14.4 µM (inactive) | 71.4 µM (inactive) | 58.3 µM (inactive) | 27.9 µM (inactive) | 59.8 µM (inactive) | 22.6 µM (inactive) | 18.2 µM (inactive) | 17.5 µM (inactive) | 47.4 µM (inactive) | 25.9 µM (inactive) | 29.4 µM (inactive) | 29.6 µM (inactive)
2 | COc1ccc(CC2NCCc3cc(OC)c(OC)cc32)cc1 (stereo not given) | > 100 µM (inactive) | > 100 µM (inactive) | > 100 µM (inactive) | > 100 µM (inactive) | > 100 µM (inactive) | > 100 µM (inactive) | > 85.3 µM (inactive) | > 100 µM (inactive) | > 100 µM (inactive) | > 100 µM (inactive) | > 100 µM (inactive) | > 100 µM (inactive) | 57.4 µM (inactive) | > 100 µM (inactive) | > 100 µM (inactive) | > 100 µM (inactive) | > 100 µM (inactive) | > 100 µM (inactive)
3 | C/C=C/C1(NS(=O)(=O)c2ccc(C)cc2)CCC(C(C)(C)C)CC1 (stereo not given) | 11.6 µM (inactive) | 16 µM (inactive) | 20 µM (inactive) | 25.6 µM (inactive) | 18.8 µM (inactive) | 24.3 µM (inactive) | 25.4 µM (inactive) | 18.2 µM (inactive) | 36.1 µM (inactive) | 35.8 µM (inactive) | 23 µM (inactive) | 19.5 µM (inactive) | 19.7 µM (inactive) | 23.4 µM (inactive) | 23 µM (inactive) | 26.1 µM (inactive) | 42.2 µM (inactive) | 27.4 µM (inactive)
4 | CCN(CC)CCOc1ccc(C(O)(Cc2ccc(OC)cc2)c2ccccc2)cc1 (stereo not given) | 20.5 µM (inactive) | 14.3 µM (inactive) | 12 µM (inactive) | 24.5 µM (inactive) | 17 µM (inactive) | 13.1 µM (inactive) | 22 µM (inactive) | 27.9 µM (inactive) | 33.6 µM (inactive) | 18.3 µM (inactive) | 26.9 µM (inactive) | 17.6 µM (inactive) | 14.7 µM (inactive) | 7.52 µM (inactive) | 16.1 µM (inactive) | 17.2 µM (inactive) | 24.6 µM (inactive) | 23.6 µM (inactive)
5 | COc1cccc(-c2cc(O)c3cc4c(cc3n2)OCO4)c1 | 0.0238 µM (active) | 0.147 µM (active) | 0.132 µM (active) | 0.195 µM (active) | 0.287 µM (active) | 0.0452 µM (active) | 0.182 µM (active) | 0.294 µM (active) | 0.22 µM (active) | 0.126 µM (active) | 2.59 µM (inactive) | 0.0757 µM (active) | 18 µM (inactive) | 0.0605 µM (active) | 0.938 µM (active) | 0.034 µM (active) | 0.109 µM (active) | 0.0374 µM (active)
